Results as given in US20260083750A1, “SMALL MOLECULE INHIBITORS OF KRAS PROTEINS” (MERCK SHARP & DOHME LLC, priority 2022, published 2026).

Key:
HRAS = HRAS (Homo sapiens, UniProt P01112); test: SOS-catalyzed nucleotide exchange assay (Procedure A, TR-FRET); assay type: biochemical; settings: 60 min preincubation, SOS + GTP, read-out: HRAS GNE IC50
Source text: (§1) Procedure for SOS-Catalyzed Nucleotide Exchange Assay for KRAS-G12C/D/V, G13D, HRAS, and NRAS (Procedure A)
(§2) Recombinant KRAS-G12C protein used in this assay has an additional triple mutation (C51S/C80L/C118S), whereas KRAS-G12D/V, G13D, HRAS and NRAS are in context of their WT protein sequence background. Specifically, the SOS-catalyzed nucleotide exchange assay utilizes a preformed TR-FRET complex containing a specific biotinylated RAS protein (KRAS-G12C/V/D, G13D, HRAS, NRAS; described above) with Bodipy-GDP, and Terbium-streptavidin. Compounds are preincubated with this complex for 60 minutes. Subsequently, recombinant human SOS protein and unlabeled GTP are added to initiate the exchange reaction. Small molecule inhibitors stabilize the Bodipy-GDP complex whereas the untreated protein rapidly exchanges Bodipy-GDP for unlabeled GTP resulting in reduced TR-FRET signal.
(§3) To assemble the preformed TR-FRET complexes, each biotinylated RAS protein is diluted to 2 μM in an EDTA Buffer (20 mM HEPES pH 7.5, 50 mM sodium chloride, 10 mM EDTA, and 0.01% Tween) and incubated at room temperature for one hour. This mixture is then further diluted to 90 nM in an Assay Buffer (20 mM HEPES pH 7.5, 150 mM sodium chloride, 10 mM magnesium chloride, and 0.005% Tween) containing 15 nM of Terbium-Streptavidin (Invitrogen, catalog #PV3577) and 900 nM of Bodipy-GDP (Invitrogen, catalog #G22360) and incubated at room temperature for six hours. It should be noted that this preformed TR-FRET complex for each of the RAS protein were made ahead of time, aliquoted and stored at −80° C. until the day of the experiment.
(§4) Each test compound (10 mM stock in DMSO) is diluted in DMSO to make a final-10-point, 3-fold dilution and is acoustically dispensed into a 384-well assay plate (Corning, catalog #3820) using an Echo 550 (Labcyte). Each well of the assay plate receives 3 μL of a specific 3× RAS preformed TR-FRET complex and 3 μL of Assay Buffer and is incubated at room temperature for 60 minutes (preincubation time). Each well then receives 3 μL of 3× recombinant human SOS protein and GTP (Sigma, G8877) in Assay Buffer and is incubated at room temperature for 30 minutes (G13D), 60 minutes (G12C/D, H/NRAS) or 90 minutes for G12V. The final reaction in each well of […] consists of 3 mM GTP, specific Ras and SOS proteins in the following concentrations: KRAS-G12C/SOS=3 nM/40 nM, KRAS-G12D/SOS=1 nM/40 nM, KRAS-G12V/SOS=1.25 nM/160 nM, KRAS-G13D/SOS=1.25 nM/0 nM, HRAS & NRAS=1.25 nM/40 nM.
(§5) The time-resolved fluorescence resonance energy transfer (TR-FRET) signal is measured on an Envision (PerkinElmer) plate reader: Excitation filter=340 nm; emission1=495 nm; emission2=520 nm; dichroic mirror=D400/D505; delay time=[…]. The signal of each well is determined as the ratio of the emission at 520 nm to that at 495 nm. Percent effect of each well is determined after normalization to control wells containing DMSO (no effect) or a saturating concentration of inhibitor (max effect). The apparent effect as a function of compound concentration is fit to a four-parameter logistic equation.

NRAS = NRAS (Homo sapiens, UniProt P01111); test: as above; assay type: biochemical; settings: 60 min preincubation, SOS + GTP, read-out: NRAS GNE IC50
NRAS, sequence (P01111 with tags, fused parts or gaps): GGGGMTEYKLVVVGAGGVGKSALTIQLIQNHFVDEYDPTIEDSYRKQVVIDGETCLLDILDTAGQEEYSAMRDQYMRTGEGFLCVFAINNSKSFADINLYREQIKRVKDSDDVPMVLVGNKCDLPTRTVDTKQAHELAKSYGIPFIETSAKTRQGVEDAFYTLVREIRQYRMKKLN
Source text: as §1, §2, §3, §4, §5

[1] = molecular target: T1, KRAS-G12C (C51S/C80L/C118S) (Homo sapiens, UniProt P01116, C118S/C51S/C80L/G12C); test: as above; assay type: biochemical; settings: 60 min preincubation, SOS + GTP, read-out: KRAS G12C GNE IC50
T1 construct: N-terminal biotin-acceptor peptide […]
T1 sequence (P01116 with tags, fused parts or gaps isoform P01116-2 G12C/C51S/C80L/C118S): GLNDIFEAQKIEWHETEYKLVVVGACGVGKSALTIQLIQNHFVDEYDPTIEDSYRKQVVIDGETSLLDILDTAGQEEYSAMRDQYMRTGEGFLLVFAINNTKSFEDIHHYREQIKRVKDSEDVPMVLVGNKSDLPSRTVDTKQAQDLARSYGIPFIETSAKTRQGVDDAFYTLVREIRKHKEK
Source text: as §1, §2, §3, §4
as §5, with “Percent effect of each well is determined after normalization to control wells containing DMSO (no effect) or a saturating concentration of inhibitor (max effect).” left out

KRAS-G12V = molecular target: T2, KRAS-G12V (Homo sapiens, UniProt P01116, G12V); test: as above; assay type: biochemical; settings: 60 min preincubation, SOS + GTP, read-out: KRAS G12V GNE IC50
T2 construct: N-terminal biotin-acceptor peptide […]
T2 sequence (P01116 with tags, fused parts or gaps isoform P01116-2 G12V): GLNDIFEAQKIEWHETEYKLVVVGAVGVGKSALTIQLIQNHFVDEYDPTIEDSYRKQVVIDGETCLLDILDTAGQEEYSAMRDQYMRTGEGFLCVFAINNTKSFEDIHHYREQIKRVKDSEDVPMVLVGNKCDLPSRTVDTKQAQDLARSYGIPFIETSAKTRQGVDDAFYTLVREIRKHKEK
Source text: as §1, §2, §3, §4
as §5, with “Percent effect of each well is determined after normalization to control wells containing DMSO (no effect) or a saturating concentration of inhibitor (max effect).” left out

KRAS-G13D = molecular target: T3, KRAS-G13D (Homo sapiens, UniProt P01116, G13D); test: as above; assay type: biochemical; settings: 60 min preincubation, GTP, read-out: KRAS G13D GNE IC50
T3 construct: N-terminal biotin-acceptor peptide […]
T3 sequence (P01116 with tags, fused parts or gaps isoform P01116-2 G13D): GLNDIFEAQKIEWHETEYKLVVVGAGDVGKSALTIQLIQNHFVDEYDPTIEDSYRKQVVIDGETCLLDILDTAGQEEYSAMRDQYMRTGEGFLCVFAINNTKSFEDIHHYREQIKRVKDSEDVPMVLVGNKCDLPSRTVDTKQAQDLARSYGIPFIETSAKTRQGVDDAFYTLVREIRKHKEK
Source text: as §1, §2, §3, §4
as §5, with “Percent effect of each well is determined after normalization to control wells containing DMSO (no effect) or a saturating concentration of inhibitor (max effect).” left out

KRAS-G12D = molecular target: T4, KRAS-G12D (Homo sapiens, UniProt P01116, G12D); test: as above; assay type: biochemical; settings: 60 min preincubation, SOS + GTP, read-out: KRAS G12D GNE IC50
T4 construct: N-terminal biotin-acceptor peptide […]
T4 sequence (P01116 with tags, fused parts or gaps isoform P01116-2 G12D): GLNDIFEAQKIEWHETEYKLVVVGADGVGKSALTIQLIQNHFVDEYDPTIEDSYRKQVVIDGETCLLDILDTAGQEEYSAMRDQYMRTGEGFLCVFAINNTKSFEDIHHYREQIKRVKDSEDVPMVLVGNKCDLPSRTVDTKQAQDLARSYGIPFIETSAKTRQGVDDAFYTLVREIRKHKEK
Source text: as §1, §2, §3, §4
as §5, with “Percent effect of each well is determined after normalization to control wells containing DMSO (no effect) or a saturating concentration of inhibitor (max effect).” left out

[2] = test system: PANC08.13 cells (homozygous KRAS-G12D activating mutation); test: Cellular phospho-ERK assay in G12D cell line; assay type: cell-based; settings: Homo sapiens, PANC-08-13, 2 hours compound incubation, ratio of p-ERK vs. total ERK, read-out: PANC 0813 pERK IC50
Protocol: Procedure for Cellular Phospho-ERK Assay in G12D and G12V Cell Lines
PANC08.13 cells (ATCC® CRL-2551™), containing homozygous KRAS-G12D activating mutation, were cultured in growth medium made of RPMI1640-GlutaMAX™—I (ThermoFisher Scientific 61870) containing 15% heat inactivated fetal bovine serum (ThermoFisher Scientific 10091148)). SW620 cells (ATCC® […]), containing homozygous KRAS-G12V activating mutation, were cultured in growth medium that contains RPMI 1640-GlutaMAX™—I (ThermoFisher Scientific 61870) containing 10% heat inactivated fetal bovine serum (ThermoFisher Scientific 10091148).
Cells for the assay were harvested in growth medium after TrypLE (ThermoFisher scientific 12604021) digestion and were seeded in a 384-well collagen coated cell culture plate (Corning 356702) at a density of 10,000-15,000 cells/20 uL/well, and incubated at 37° C., 5% CO2 overnight. The compound (with 10 mM stock concentration) dose-response titrations were prepared [30 μM final ERK detection assay concentration and 1:3 dilutions, 10-point dose response] and appropriate amounts (270 nL) of test compounds were dispensed in a 384-well intermediate plate using an Echo 550 liquid handler. 30 uL/well of RPMI medium 1640-GlutaMAX™—I was added to the intermediate plate and the contents of the intermediate plate (10 uL/well) were then transferred to the 384-well collagen coated cell culture plate, which was incubated at 37° C., 5% CO2 for 2 hours. After removal of medium from the collagen coated cell culture plate, cells were lysed in lysis buffer from Alpha SureFire® Ultra™ Multiplex p-ERK and total ERK assay kit (PerkinElmer MPSU-PTERK) containing Halt™ Protease and Phosphatase inhibitor cocktail (ThermoFisher Scientific 78446) at room temperature with constant shaking at 300 rpm for 30 minutes. The cell lysates were then transferred to an OptiPlate-384 plate (PerkinElmer 6005620), and the phosphorylation of ERK (p-ERK) and total ERK levels were detected by Alpha SureFire® Ultra™ Multiplex p-EEK kit and total ERK assay kit (PerkinElmer MPSU-PTERK) following the manufacturer's protocol. Assay plates were read on a EnVision Multimode Plate Reader (PerkinElmer), and the ratio of p-ERK vs. total ERK in each well was used as the final readout. Dose response curves were analyzed using a 4-parameter logistic model to calculate IC50 values using Spotfire software.

HRAS, sequence (P01112 with tags, fused parts or gaps): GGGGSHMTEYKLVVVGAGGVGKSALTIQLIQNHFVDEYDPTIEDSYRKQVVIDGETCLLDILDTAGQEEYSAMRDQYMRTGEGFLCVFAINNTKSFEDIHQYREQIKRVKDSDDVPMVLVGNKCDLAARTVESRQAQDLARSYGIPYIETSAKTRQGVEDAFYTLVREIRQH

IC50 (HRAS) [nM]	IC50 (NRAS) [nM]	IC50 [1] [nM]	IC50 (KRAS-G12V) [nM]	IC50 (KRAS-G13D) [nM]	IC50 (KRAS-G12D) [nM]	IC50 [2] [nM]	SMILES
> 11100	> 11100	390	273	936	2360	–	CC1(NC[C@@]2(COc3nc(N4CCCOCC4)c4cc(Cl)c(-c5ccc(F)c6sc(N)c(C#N)c56)c(F)c4n3)CC2(F)F)COC1 [compound 29, 2-amino-4-(6-chloro-2-(((R)-2,2-difluoro-1-(((3-methyloxetan-3-yl)amino)methyl)cyclo-propyl)methoxy)-8-fluoro-4-(1,4-oxazepan-4-yl)quinazolin-7-yl)-7-fluorobenzo[b]thiophene-3-carbonitrile]
–	–	–	3.54	–	8.27	48.9	N#Cc1c(N)sc2c(F)ccc(-c3c(Br)cc4c(N5CCCOCC5)nc(OC[C@@]56CCCN5C[C@H](F)C6)nc4c3F)c12 [compound 37, 2-amino-4-(6-bromo-8-fluoro-2-(((2R,7aS)-2-fluorotetrahydro-1H-pyrrolizin-7a(5H)-yl)methoxy)-4-(1,4-oxazepan-4-yl)quinazolin-7-yl)-7-fluorobenzo[b]thiophene-3-carbonitrile]
–	–	–	43.1	–	210	–	N#Cc1c(N)sc2c(F)ccc(-c3c(C(F)(F)F)cc4c(N5C[C@H]6CC[C@H]6C5)nc(OC[C@@]56CCCN5C[C@H](F)C6)nc4c3F)c12 [compound 52, 4-(4-((1R,5S)-3-azabicyclo[3.2.0]heptan-3-yl)-8-fluoro-2-(((2R,7aS)-2-fluorotetrahydro-1H-pyrrolizin-7a(5H)-yl)methoxy)-6-(trifluoromethyl)quinazo-lin-7-yl)-2-amino-7-fluorobenzo[b]thiophene-3-carbonitrile]
–	–	–	84.7	–	972	–	N#Cc1c(N)sc2c(F)ccc(-c3c(C(F)(F)F)cc4c(N5CCC6(C5)CC6(F)F)nc(OC[C@@]56CCCN5C[C@H](F)C6)nc4c3F)c12 (stereo partly drawn) [compound 53, 2-amino-4-(4-(1,1-difluoro-5-azaspiro[2.4]heptan-5-yl)-8-fluoro-2-(((2R,7aS)-2-fluorotetrahydro-1H-pyrrolizin-7a(5H)-yl)methoxy)-6-(trifluoromethyl)quinazo-lin-7-yl)-7-fluorobenzo[b]thiophene-3-carbonitrile]

More lines, now with the values behind:

SMILES	IC50 (HRAS) [nM]	IC50 (NRAS) [nM]	IC50 [1] [nM]	IC50 (KRAS-G12V) [nM]	IC50 (KRAS-G13D) [nM]	IC50 (KRAS-G12D) [nM]	IC50 [2] [nM]
N#Cc1c(N)sc2c(F)ccc(-c3c(Cl)cc4c(N5CCCOCC5)nc(OC[C@]5(CO)CC5(F)F)nc4c3F)c12 [Ex. 32, 2-amino-4-(6-chloro-2-(((R)-2,2-difluoro-1-(hydroxymethyl)cyclopropyl)methoxy)-8-fluoro-4-(1,4-oxazepan-4-yl)quinazolin-7-yl)-7-fluorobenzo[b]thiophene-3-carbonitrile]	> 11100	> 11100	885	3440	798	–	–
Cc1cc(N)nc(-c2c(F)cc3c(N4CC[C@@H]5[C@@H](C#N)[C@@H]5CC4)nc(OC[C@@]45CCCN4C[C@H](F)C5)nc3c2F)c1C(F)(F)F [Ex. 45, (1R,7S,8S)-4-(7-(6-amino-4-methyl-3-(trifluoromethyl)pyridin-2-yl)-6,8-difluoro-2-(((2R,7aS)-2-fluorotetrahydro-1H-pyrrolizin-7a(5H)-yl)methoxy)quinazolin-4-yl)-4-azabicyclo[5.1.0]octane-8-carbonitrile]	> 11100	> 11100	1750	1490	≥ 11100	4470	–
CCC1CCOCCN1c1nc(OC[C@@]23CCCN2C[C@H](F)C3)nc2c(F)c(-c3ccc(F)c4sc(N)c(C#N)c34)c(Cl)cc12 (stereo partly drawn) [compound 14, 2-amino-4-(6-chloro-4-(5-ethyl-1,4-oxazepan-4-yl)-8-fluoro-2-(((2R,7aS)-2-fluorotetrahydro-1H-pyrrolizin-7a(5H)-yl)methoxy)quinazo-lin-7-yl)-7-fluorobenzo[b]thio-phene-3-carbonitrile]	–	–	–	6.18	–	6.32	154
N#Cc1c(N)sc2c(F)ccc(-c3c(Cl)cc4c(N5CCOCCC5C(F)(F)F)nc(OC[C@@]56CCCN5C[C@H](F)C6)nc4c3F)c12 (stereo partly drawn) [compound 15, 2-amino-4-(6-chloro-8-fluoro-2-(((2R,7aS)-2-fluorotetrahydro-1H-pyrrolizin-7a(5H)-yl)methoxy)-4-(5-(trifluoromethyl)-1,4-oxazepan-4-yl)quinazolin-7-yl)-7-fluorobenzo[b]thio-phene-3-carbonitrile]	–	–	–	20.1	–	94	464
CC1(NC[C@@]2(COc3nc(N4CCCOCC4)c4cc(Cl)c(-c5ccc(F)c6sc(N)c(C#N)c56)c(F)c4n3)CC2(F)F)CC1 [compound 27, 2-amino-4-(6-chloro-2-(((R)-2,2-difluoro-1-(((1-methylcyclopropyl)a-mino)methyl)cyclopro-pyl)methoxy)-8-fluoro-4-(1,4-oxazepan-4-yl)quinazolin-7-yl)-7-fluorobenzo[b]thiophene-3-carbonitrile]	> 11100	> 11100	243	148	846	4980	–
